For 41 compounds, IC50 results are on record in patent publication US9006440B2, “Furopyridine derivatives” (Merck Patent GmbH, priority 2010, dated 2015).

Assay type in all cases: biochemical
The target in one assay is T1, Syk (Homo sapiens, UniProt P43405).
T1 construct: purchased BPS Bioscience, CA, USA
Put plainly: Syk enzyme assay (SYK flash plate assay / Caliper mobility shift). As to the method:
The kinase assay is performed either as 384-well Flashplate assay (for e.g. Topcount measurement) or as 384-well Image-Flashplate assay (for LEADseeker measurement).
2.5 nM SYK, 400 nM Biotin-Aha-Aha-KEDPDYEWPSAKK
and 10 μM ATP (spiked with 0.3 μCi 33P-ATP/well) are incubated in a total volume of 50 μl (60 mM Hepes, 10 mM MgCl2, 1.2 mM Dithiothreitol, 0.02% Brij35, 0.1% BSA, pH 7.5) with or without test compound for 1 hours at 30° C. The reaction is stopped with 25 μl 200 mM EDTA. After 30 Min at 30° C. the liquid is removed and each well washed thrice with 100 μl 0.9% sodium chloride solution. Non-specific reaction is determined in presence of 0.1 μM Staurosporine. Radioactivity is measured with Topcount (when using Flashplates) or with LEADseeker (when using Image-Flashplates) respectively. Results (e.g. IC50-values) are calculated with program tools provided by the IT-department (e.g. Symyx Assay Explorer, Genedata Screener). Enzymatic Assays Using the Caliper LifeSciences Technology
(§1) The assays described here are performed on the Caliper Life Sciences LC3000 system This technology provides data on enzyme activity via measurement of the relative amounts of phosphorylated or unphosphorylated fluorescently labelled substrate peptide at the end of an enzymatic reaction. These different states of peptide are resolved by applying a potential difference across the sample. The presence of the charged phosphate group on the product (as opposed to the substrate) causes a different peptide mobility between the two peptides. This is visualized by excitation of the fluorescent label on the substrate and product peptides and represented as peaks within the analysis software.
(§2) In order to measure inhibitor activity of kinase inhibitors on this technology, a TTP Mosquito liquid handling instrument is used to place 0.25 ul of the appropriate concentration of inhibitor in 100% DMSO (for a dose response curve calculation) into each well of a 384-well plate. To this reaction components are added to a final volume of 25 ul. The table below indicates the sequences and concentrations for the assays described in this report. Standard components are 1 mM DTT (Sigma, D0632), 1 mM MgCl2 (Sigma, M1028), 100 mM HEPES pH 7.5 (Calbiochem, 391338), 0.015% Brij-35 (Sigma, B4184).
(§3) The reaction is incubated for 90 min at 25 C, and then stopped by the addition of 70 ul of Stop buffer (100 mM HEPES pH 7.5, 0.015% Brij-35, 10 mM EDTA (Sigma, E7889)).
(§4) The plate is read on a Caliper LC 3000 in an Off-Chip mobility shift assay format, on a 12-sipper chip. Unphosphorylated substrate and phosphorylated product peptide resolve as separate peaks allowing direct measurement of percentage of conversion of substrate to product. The percent conversion can be plotted against concentration of inhibitor to produce a sigmoidal dose response curve, from which an IC50 can be calculated using GeneData Condoseo or a similar product.

A further assay deals with T2, KDR (Homo sapiens, UniProt P35968).
T2 construct: purchased BPS Bioscience, CA, USA
T2 sequence (P35968 20-1356): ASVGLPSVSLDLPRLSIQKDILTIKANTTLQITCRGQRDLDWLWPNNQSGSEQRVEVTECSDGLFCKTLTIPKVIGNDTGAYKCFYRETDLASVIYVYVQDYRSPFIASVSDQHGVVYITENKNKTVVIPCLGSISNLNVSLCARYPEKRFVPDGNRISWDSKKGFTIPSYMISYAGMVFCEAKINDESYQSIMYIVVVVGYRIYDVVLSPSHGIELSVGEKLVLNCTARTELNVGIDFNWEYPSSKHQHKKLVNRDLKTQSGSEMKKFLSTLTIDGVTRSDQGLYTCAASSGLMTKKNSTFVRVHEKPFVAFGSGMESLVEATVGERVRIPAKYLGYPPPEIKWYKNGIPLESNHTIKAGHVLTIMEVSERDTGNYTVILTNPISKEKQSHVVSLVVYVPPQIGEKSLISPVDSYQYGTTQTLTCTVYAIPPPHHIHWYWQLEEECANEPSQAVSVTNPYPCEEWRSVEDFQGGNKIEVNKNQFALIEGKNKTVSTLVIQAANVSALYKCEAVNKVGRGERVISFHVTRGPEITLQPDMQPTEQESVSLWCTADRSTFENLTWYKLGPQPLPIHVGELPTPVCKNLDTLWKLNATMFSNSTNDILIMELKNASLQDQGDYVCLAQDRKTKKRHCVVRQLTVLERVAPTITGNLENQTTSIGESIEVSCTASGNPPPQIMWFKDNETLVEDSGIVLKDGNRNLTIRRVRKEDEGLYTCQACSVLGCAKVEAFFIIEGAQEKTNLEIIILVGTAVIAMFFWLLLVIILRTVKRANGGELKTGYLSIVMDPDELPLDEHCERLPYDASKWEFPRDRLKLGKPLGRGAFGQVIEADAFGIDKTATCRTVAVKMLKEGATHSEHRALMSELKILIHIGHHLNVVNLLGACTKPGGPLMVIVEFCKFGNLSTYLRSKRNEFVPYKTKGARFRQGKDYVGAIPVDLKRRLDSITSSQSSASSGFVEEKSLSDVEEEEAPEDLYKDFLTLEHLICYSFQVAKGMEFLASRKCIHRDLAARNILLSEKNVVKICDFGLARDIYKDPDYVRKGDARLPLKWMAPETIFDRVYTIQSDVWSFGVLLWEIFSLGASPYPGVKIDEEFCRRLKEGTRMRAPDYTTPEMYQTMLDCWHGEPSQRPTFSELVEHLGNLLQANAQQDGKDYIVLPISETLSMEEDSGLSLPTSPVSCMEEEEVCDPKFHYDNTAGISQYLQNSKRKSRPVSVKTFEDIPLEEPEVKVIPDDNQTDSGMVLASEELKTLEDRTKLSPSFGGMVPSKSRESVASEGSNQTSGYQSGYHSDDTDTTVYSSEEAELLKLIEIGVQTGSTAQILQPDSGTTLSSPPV
Kind of assay: KDR enzymatic assay (Caliper LifeSciences technology). The method, then:
as §1, §2, §3, §4

For a further assay, the target named is T3, SRC (Homo sapiens, UniProt P12931).
T3 construct: purchased Carna Bioscience, Kobe, Japan
T3 sequence (P12931 whole entry): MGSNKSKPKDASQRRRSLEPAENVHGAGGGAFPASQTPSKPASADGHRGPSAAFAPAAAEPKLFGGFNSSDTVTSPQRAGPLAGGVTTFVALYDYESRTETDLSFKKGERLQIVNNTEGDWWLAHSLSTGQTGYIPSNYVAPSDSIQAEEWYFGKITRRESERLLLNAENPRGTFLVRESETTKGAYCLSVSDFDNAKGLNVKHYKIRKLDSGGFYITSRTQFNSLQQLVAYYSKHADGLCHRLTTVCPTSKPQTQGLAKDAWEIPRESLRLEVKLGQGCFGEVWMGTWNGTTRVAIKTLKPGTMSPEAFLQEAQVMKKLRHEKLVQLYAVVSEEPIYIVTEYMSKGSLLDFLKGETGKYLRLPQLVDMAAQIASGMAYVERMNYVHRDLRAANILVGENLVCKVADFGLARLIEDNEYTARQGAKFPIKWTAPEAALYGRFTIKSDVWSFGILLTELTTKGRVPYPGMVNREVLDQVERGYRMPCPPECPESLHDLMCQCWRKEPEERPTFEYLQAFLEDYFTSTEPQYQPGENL
Put plainly: Src enzymatic assay (Caliper LifeSciences technology). As to the method: as §1, §2, §3, §4

A word on the IC50: it is the concentration that inhibits the measured activity by half. Turning to `CNC(=O)c1ccc(-c2ccnc3cc(-c4cc(OC)c(OC)c(OC)c4)oc23)cc1` [Compound A13, N-Methyl-4-[2-(3,4,5-trimethoxy-phenyl)-furo[3,2-b]pyridin-7-yl]-benzamide], the figures for the half-maximal inhibitory concentration (IC50) on Syk and against KDR were below 0.3 µM and 0.3 to 3 µM, respectively. For `COC(=O)c1cccc(-c2cc3nccc(-c4ccccc4)c3o2)c1` [Compound A19, 3-(7-Phenyl-furo[3,2-b]pyridin-2-yl)-benzoic acid methyl ester], the concentration for half-maximal inhibition (IC50) at Syk and at KDR was 3 to 50 µM in each case. On to `COc1ccc(-c2ccnc3cc(-c4cc(OC)c(OC)c(OC)c4)oc23)c(OC)c1` [Compound A28, 7-(2,4-Dimethoxy-phenyl)-2-(3,4,5-trimethoxy-phenyl)-furo[3,2-b]pyridine], for which the IC50 at Syk is below 0.3 µM; against KDR it was 0.3 to 3 µM.

Turning to `COc1cc(-c2ccnc3cc(-c4cc(OC)c(OC)c(OC)c4)oc23)ccn1` [Compound A29, 7-(2-Methoxy-pyridin-4-yl)-2-(3,4,5-trimethoxy-phenyl)-furo[3,2-b]pyridine], the IC50 at Syk was below 0.3 µM; against KDR, 0.3 to 3 µM. For `COc1cc(-c2cc3nccc(-c4cccc(O)c4)c3o2)cc(OC)c1OC` [Compound A36, 3-[2-(3,4,5-Trimethoxy-phenyl)-furo[3,2-b]pyridin-7-yl]-phenol], in that order: below 0.3 µM and 3 to 50 µM. For `COc1cc(-c2cc3nccc(-c4ccc(CN)cc4)c3o2)cc(OC)c1OC` [Compound A53, 4-[2-(3,4,5-Trimethoxy-phenyl)-furo[3,2-b]pyridin-7-yl]-benzylamine] the same measures were below 0.3 µM and 0.3 to 3 µM. `COc1cc(-c2cc3nccc(-c4cccc(C(=O)NC5CCNC5)c4)c3o2)cc(OC)c1OC` (stereo not drawn) [Compound A66, N-pyrrolidin-3-yl-3-[2-(3,4,5-trimethoxyphenyl)furo[3,2-b]pyridin-7-yl]benzamide]: the IC50 is below 0.3 µM on Syk and 0.3 to 3 µM against SRC. Regarding `COc1cc(-c2cc3nccc(-c4cccc(C(=O)N5CCC(N)C5)c4)c3o2)cc(OC)c1OC` (stereo not drawn) [Compound A67, (3-aminopyrrolidin-1-yl)-[3-[2-(3,4,5-trimethoxyphenyl)furo[3,2-b]pyridin-7-yl]phenyl]methanone], the concentration for half-maximal inhibition (IC50) on Syk and on SRC was 0.3 to 3 µM each time. As for `COc1cc(-c2cc3nccc(Nc4ccc5c(c4)NC(=O)C(F)(F)O5)c3o2)cc(OC)c1OC` [Compound B10, 2,2-Difluoro-6-[2-(3,4,5-trimethoxy-phenyl)-furo[3,2-b]pyridin-7-ylamino]-4H-benzo[1,4]oxazin-3-one], the IC50 at Syk is 0.3 to 3 µM; on KDR, below 0.3 µM. For `COc1cccc(-c2cc3nccc(-c4cccc(OC)c4)c3o2)c1` [Compound B43, 2,7-Bis-(3-methoxy-phenyl)-furo[3,2-b]pyridine] the same measures were 3 to 50 µM and 3 to 50 µM.

As for `CC(C)(O)c1ccc(-c2cc3nccc(-c4ccc(C(C)(C)O)cc4)c3o2)cc1` [Compound B45, 2-(4-{2-[4-(1-Hydroxy-1-methyl-ethyl)-phenyl]-furo[3,2-b]pyridin-7-yl}-phenyl)-propan-2-ol], the IC50 on Syk and against KDR was 0.3 to 3 µM each time.

As to `COc1cc(-c2cc3nccc(-c4cccc(NC(C)=O)c4)c3o2)cc(OC)c1OC` [Compound B72, N-(3-(2-(3,4,5-Trimethoxyphenyl)furo[3,2-b]pyridin-7-yl)phenyl)acetamide], the IC50 on Syk lay within 0.3 to 3 µM; at SRC it was 3 to 50 µM. For `COc1cc(-c2cc3nccc(-c4cccc(C(=O)NCC5CCCN5)c4)c3o2)cc(OC)c1OC` (stereo not drawn) [Compound C11], in that order: below 0.3 µM and 3 to 50 µM. As for `Cn1cc(-c2ccnc3cc(-c4ccc5c(c4)OCCO5)oc23)cn1` [Compound C17], the IC50 on Syk and against KDR was 0.3 to 3 µM in each case. In the case of `Cn1cc(-c2ccnc3cc(-c4ccc5[nH]ccc5c4)oc23)cn1` [Compound C18], the IC50 at Syk and against KDR was 0.3 to 3 µM in each case. Regarding `Cn1cc(-c2ccnc3cc(-c4ccc5cc[nH]c5c4)oc23)cn1` [Compound C19], the IC50 was below 0.3 µM on Syk and 3 to 50 µM at KDR. For the compound `Cn1cc(-c2ccnc3cc(-c4ccc(N5CCOCC5)nc4)oc23)cn1` [Compound C24], the IC50 at Syk and on KDR was 0.3 to 3 µM in each case. As to `O=C(Nc1cccc(-c2cc3nccc(-c4ccccc4)c3o2)c1)[C@@H]1CCCN1` [Compound C31], the IC50 at Syk and against KDR was 0.3 to 3 µM each time.

With `COc1ccc(-c2cc3nccc(-c4cnn(C)c4)c3o2)cc1` [Compound C33], the IC50 at Syk and at KDR was 0.3 to 3 µM throughout. With `Cn1cc(-c2ccnc3cc(-c4ccc(S(C)(=O)=O)cc4)oc23)cn1` [Compound C34], the IC50 on Syk is 0.3 to 3 µM; against KDR, 3 to 50 µM. For `Cn1cc(-c2ccnc3cc(-c4ccc(OCC(O)CN5CCOCC5)cc4)oc23)cn1` (stereo not drawn) [Compound C37] the same measures were 0.3 to 3 µM and 0.3 to 3 µM. For the compound `CC(C)c1cccc(-c2cc3nccc(-c4cnn(C)c4)c3o2)c1` [Compound C45], the IC50 is 0.3 to 3 µM at Syk and 3 to 50 µM against KDR. As for `Cn1cc(-c2ccnc3cc(-c4ccc(N5CCOCC5)cc4)oc23)cn1` [Compound C49], the IC50 at Syk and against KDR was 0.3 to 3 µM each time. Consider `c1ccc(-c2ccnc3cc(-c4ccc(N5CCOCC5)cc4)oc23)cc1` [Compound C50], for which, on Syk, the half-inhibitory concentration (IC50) lay within 0.3 to 3 µM. `Cn1cc(-c2ccnc3cc(-c4ccc([S+](C)[O-])cc4)oc23)cn1` (stereo not drawn) [Compound C54]: at Syk, the IC50 fell in the range of 0.3 to 3 µM.

In the case of `COc1cc(-c2cc3nccc(-c4ccc5[nH]c(=O)[nH]c5c4)c3o2)cc(OC)c1OC` [Compound C56], on Syk, the IC50 is below 0.3 µM. With `Cn1cc(-c2ccnc3cc(-c4ccc(CO)cc4)oc23)cn1` [Compound C59], the IC50 on Syk and on KDR was 0.3 to 3 µM in each case. Regarding `COc1cc(-c2cc3nccc(-c4cnn(C)c4)c3o2)ccc1OCCNC(=O)OC(C)(C)C` [Compound C62], the IC50 at Syk and against KDR was 0.3 to 3 µM in each case. On to `COc1cc(-c2cc3nccc(C4=CCOCC4)c3o2)cc(OC)c1OC` [Compound C68], for which the IC50 at Syk is 0.3 to 3 µM; on KDR it was below 0.3 µM. For `COc1cc(-c2cc3nccc(-c4cnc(N)cc4C)c3o2)cc(OC)c1OC` [Compound C75], the IC50 at Syk lay in the range of 0.3 to 3 µM. As to `COc1cc(-c2cc3nccc(-c4csc(N(C)C)n4)c3o2)cc(OC)c1OC` [Compound C79], the IC50 on Syk fell in the range of 0.3 to 3 µM. On to `COc1cc(-c2cc3nccc(-c4ccccc4O)c3o2)cc(OC)c1OC` [Compound C85], for which the IC50 on Syk is below 0.3 µM.

Regarding `COc1cc(-c2cc3nccc(-c4ccc5[nH]c(-c6cn[nH]c6)nc5c4)c3o2)cc(OC)c1OC` [Compound C90], the IC50 on Syk was below 0.3 µM.

`CC(=O)c1ccc(-c2cc3nccc(-c4cnn(C)c4)c3o2)cc1` [Compound C95]: the half-maximal inhibitory concentration (IC50) on Syk was in the range of 0.3 to 3 µM. On the same count and under the same terms, as for `CN1CCN(c2cc(-c3cc4nccc(-c5ccnc(N6CCN(C)CC6)c5)c4o3)ccn2)CC1` [Compound C96], the figure is 3 to 50 µM. On to `Cn1cc(-c2ccnc3cc(-c4ccc5cnn(C)c5c4)oc23)cn1` [Compound C98], for which the IC50 at Syk is below 0.3 µM; on KDR, 3 to 50 µM. With `Cn1cc(-c2ccnc3cc(-c4ccc(C(C)(C)O)cc4)oc23)cn1` [Compound C100], the half-inhibitory concentration (IC50) at Syk was below 0.3 µM. For the compound `COc1cc(-c2cc3nccc(-c4ccc[nH]4)c3o2)cc(OC)c1OC` [Compound C105], the IC50 on Syk was 0.3 to 3 µM. Regarding `COc1cc(-c2cc3nccc(-c4cccc(S(C)(=O)=O)c4)c3o2)cc(OC)c1OC` [Compound C110], the results for the IC50 on Syk and against KDR were below 0.3 µM and 0.3 to 3 µM, respectively. On to `Cn1cc(-c2ccnc3cc(-c4ccc5cn[nH]c5c4)oc23)cn1` [Compound C133], for which the IC50 at Syk is below 0.3 µM. Same read-out and setting: with `Cn1ncc2cc(-c3cc4nccc(-c5cccc(C(=O)N[C@@H]6CCCC[C@@H]6N)c5)c4o3)ccc21` [Compound C175] the figure was below 0.3 µM.
